Where two headings read alike, the source gives them in different places.
Tests used:
[1] = molecular target: T1, hP2X3 (Homo sapiens, UniProt P56373); experiment: Calcium uptake assay (P2X antagonist assay), P2X3 homomer; assay type: cell-based; details: hP2X3
T1 construct: expressed in transfected cells; host or cells: e.g. HEK293 or 1321N1
T1 sequence (P56373 1-397): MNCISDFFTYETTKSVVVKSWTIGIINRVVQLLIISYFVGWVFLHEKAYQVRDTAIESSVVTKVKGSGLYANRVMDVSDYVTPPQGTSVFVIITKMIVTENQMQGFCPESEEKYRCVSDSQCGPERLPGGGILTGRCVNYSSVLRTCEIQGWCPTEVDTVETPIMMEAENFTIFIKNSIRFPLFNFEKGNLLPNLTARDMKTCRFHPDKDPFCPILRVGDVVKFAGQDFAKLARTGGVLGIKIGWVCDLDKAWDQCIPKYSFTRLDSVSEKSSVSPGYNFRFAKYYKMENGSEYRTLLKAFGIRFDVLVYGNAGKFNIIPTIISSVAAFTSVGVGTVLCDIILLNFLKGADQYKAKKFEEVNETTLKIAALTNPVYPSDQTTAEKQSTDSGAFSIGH
Method in brief: (§1)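 Stably or transiently transfected HEK293 or 1321N1 cells; the heteromer is made by adding P2X3 to a P2X2-stable line, with heteromer function isolated pharmacologically. The peak-minus-baseline FLIPR calcium signal gives % inhibition and a 4-parameter-logistic IC50.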

[2] = molecular target: T2, hP2X2/3H (Homo sapiens, UniProt P56373+Q9UBL9); experiment: Calcium uptake assay (P2X antagonist assay), P2X2/3 heteromer; assay type: cell-based; details: hP2X2/3H
T2 construct: expressed in transfected cells; host or cells: e.g. HEK293 or 1321N1
T2 sequence (Q9UBL9 1-471): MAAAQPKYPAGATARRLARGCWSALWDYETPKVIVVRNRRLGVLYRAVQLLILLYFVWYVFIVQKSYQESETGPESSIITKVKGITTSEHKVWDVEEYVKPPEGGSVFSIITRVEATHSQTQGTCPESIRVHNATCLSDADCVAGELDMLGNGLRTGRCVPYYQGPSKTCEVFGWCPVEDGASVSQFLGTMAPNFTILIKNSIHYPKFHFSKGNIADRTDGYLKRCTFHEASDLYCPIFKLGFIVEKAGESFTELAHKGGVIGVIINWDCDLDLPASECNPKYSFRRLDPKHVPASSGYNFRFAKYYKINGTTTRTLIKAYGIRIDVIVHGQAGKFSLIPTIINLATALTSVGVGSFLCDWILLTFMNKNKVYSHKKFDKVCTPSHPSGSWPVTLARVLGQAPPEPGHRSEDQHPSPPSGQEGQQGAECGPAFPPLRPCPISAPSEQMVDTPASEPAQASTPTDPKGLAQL
T2 sequence (P56373 1-397): T1 sequence (P56373 1-397)
Method in brief: as §1

[3] = Ca influx (calcium uptake assay), read-out: IC50 hP2X3
[4] = Ca influx (calcium uptake assay), read-out: IC50 hP2X2/3H
[5] = calcium uptake assay, read-out: IC50 hP2X3 (nM), Ca Influx
[6] = calcium uptake assay, read-out: IC50 hP2X2/3H (nM), Ca Influx

| SMILES | IC50 [1, 3] [nM] | IC50 [2, 4] [nM] | IC50 [1, 5] [nM] | IC50 [2, 6] [nM] |
| --- | --- | --- | --- | --- |
| Cc1ccc(-c2cc(C(=O)O)cc(C(=O)NCc3cnc(C)nc3)c2)cc1 [Compound 21, 4′-Methyl-5-((2-methylpyrimidin-5-yl)methylcarbamoyl)biphenyl-3-carboxylic acid] |  |  | 100 to 500 | > 1000 |
| Cc1ccc(-c2cc(S(=O)(=O)N3CCCC3)cc(C(=O)NCc3cnc(C)nc3)c2C)cc1 [Compound 67, 2,4′-Dimethyl-N-((2-methylpyrimidin-5-yl)methyl)-5-(pyrrolidin-1-ylsulfonyl)biphenyl-3-carboxamide] |  |  | < 100 | > 1000 |
| Cc1ccc(-c2cc(C(=O)N[C@H](C)c3cnn(C)c3C(F)(F)F)cc(C(=O)N3CCCC3)c2)cc1 [Compound 107] |  |  | 100 to 500 | 501 to 1000 |
| Cc1ccc(-c2cc(C(=O)NCc3ccc(C(F)(F)F)nc3)cc(C(=O)N3CC(O)C3)c2)cc1 [Compound 130, 5-(3-Hydroxyazetidine-1-carbonyl)-4′-methyl-N-((6-(trifluoromethyl)pyridin-3-yl)methyl)biphenyl-3-carboxamide] |  |  | < 100 | < 100 |
| Cc1ccc(-c2cc(C(=O)NCc3ccc(Cl)nc3)cc(C(=O)N3CC(O)C3)c2)cc1 [Compound 131] |  |  | < 100 | < 100 |
| Cc1ccc(-c2cc(C(=O)NCc3cnc(C)nc3)cc(S(C)(=O)=O)c2)cc1 [Compound 22, 4′-Methyl-N-((2-methylpyrimidin-5-yl)methyl)-5-(methylsulfonyl)biphenyl-3-carboxamide] |  |  | < 100 | 100 to 500 |
| CCOC(=O)c1cc(C(=O)NCc2cnc(C)nc2)cc(-c2ccc(C)cc2)c1 [Compound 15, Ethyl 4′-methyl-5-((2-methylpyrimidin-5-yl)methylcarbamoyl)biphenyl-3-carboxylate] |  |  | < 100 | < 100 |
| CCCS(=O)(=O)c1cc(C(=O)N[C@H](C)c2cnc(C)nc2)cc(-c2ccc(C)cc2)c1 [Compound 55] |  |  | < 100 | < 100 |

Continued, values first:

| IC50 [1, 3] [nM] | IC50 [2, 4] [nM] | IC50 [1, 5] [nM] | IC50 [2, 6] [nM] | SMILES |
| --- | --- | --- | --- | --- |
| < 100 | 100 to 500 |  |  | CCN(CC)CC(O)c1cc(C(=O)N[C@H](C)c2ccc(C)nc2)cc(-c2ccc(C)cn2)c1 (stereo partly drawn) [Compound 342, 3-(2-(Diethylamino)-1-hydroxyethyl)-5-(5-methylpyridin-2-yl)-N—((R)-1-(6-methylpyridin-3-yl)ethyl)benzamide] |
|  |  | 100 to 500 | 100 to 500 | Cc1ccc(-c2cc(C(=O)NCc3cccc(-n4cnnc4)c3)cc(C(=O)N3CCCC3)c2)cc1 [Compound 159] |
| < 100 | > 1000 |  |  | Cc1ccc(-c2cc(C(=O)N[C@@H](C)CO)cc(S(=O)(=O)CC(C)C)c2)cc1 [Compound 281] |
| < 100 | < 100 |  |  | Cc1ccc(-c2cc(OCC3CCCO3)cc(C(=O)N[C@H](C)c3ccc(C)nc3)c2)nc1 (some centres unmarked) [Compound 335] |
| < 100 | 100 to 500 |  |  | Cc1ccc(-c2cc(C(=O)N[C@H](CO)c3ccc(C(F)(F)F)nc3)cc(S(C)(=O)=O)c2)cc1 [Compound 226] |
| < 100 | < 100 |  |  | Cc1ccc(-c2cc(OCC3CCOC3)cc(C(=O)N[C@H](C)c3ccc(C)nc3)c2)nc1 (some centres unmarked) [Compound 334] |
| < 100 | 100 to 500 |  |  | Cc1ccc(-c2cc(C(=O)NCc3ccn4ccnc4c3)cc(S(C)(=O)=O)c2)nc1 [Compound 351] |
|  |  | < 100 | 100 to 500 | Cc1ccc(-c2cc(C(=O)N[C@H](C)c3ccc(C(F)(F)F)nc3)cc(S(C)(=O)=O)c2)nc1 [Compound 181, (R)-3-(5-Methylpyridin-2-yl)-5-(methylsulfonyl)-N-(1-(6-(trifluoromethyl)pyridin-3-yl)ethyl)benzamide] |
| < 100 | < 100 |  |  | Cc1ccc(-c2cc(OC3CCOC3)cc(C(=O)N[C@H](C)c3cnc(C)nc3)c2)c(C#N)c1 (some centres unmarked) [Compound 358] |
| < 100 | < 100 |  |  | Cc1ccc(-c2cc(C(=O)N[C@H](C)c3ccc(C)nc3)cc(C(O)c3ccccc3)c2)c(C#N)c1 (some centres unmarked) [Compound 279] |
|  |  | < 100 | < 100 | Cc1ccc(-c2cc(C(=O)N[C@H](C)c3ccc(C(F)(F)F)nc3)cc(C(=O)N3CCCC3)c2)nc1 [Compound 135] |
